Assays:
[1] = Binding affinity towards 5-HT2 receptor from porcine cortical membranes using [3H]ketanserin
D(1A) dopamine receptor = D(1A) dopamine receptor (Sus scrofa, UniProt P50130); assay: Binding affinity towards D1 receptor from porcine striatal membranes using [3H]-SCH- 23390
D(3) dopamine receptor = D(3) dopamine receptor (Homo sapiens, UniProt P35462); assay: biochemical
Description: Binding affinity towards human D3 receptor using [3H]spiperone expressed in CHO cells

D(2) dopamine receptor [2] = molecular target: T1, D(2) dopamine receptor (Homo sapiens, UniProt P14416); assay: biochemical
T1 sequence (P14416 whole entry): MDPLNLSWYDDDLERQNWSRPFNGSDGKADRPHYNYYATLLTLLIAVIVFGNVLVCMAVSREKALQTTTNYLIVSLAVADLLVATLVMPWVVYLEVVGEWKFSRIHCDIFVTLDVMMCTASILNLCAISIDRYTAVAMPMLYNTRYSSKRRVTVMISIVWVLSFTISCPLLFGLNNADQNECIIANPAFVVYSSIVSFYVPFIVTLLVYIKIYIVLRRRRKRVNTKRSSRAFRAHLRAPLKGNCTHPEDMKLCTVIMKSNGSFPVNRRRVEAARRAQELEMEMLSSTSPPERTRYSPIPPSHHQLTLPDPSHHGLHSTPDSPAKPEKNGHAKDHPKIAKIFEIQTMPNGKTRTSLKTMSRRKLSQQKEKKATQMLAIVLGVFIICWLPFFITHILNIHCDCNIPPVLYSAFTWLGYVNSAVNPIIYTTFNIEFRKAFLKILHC
Description: Binding affinity towards human D2 short receptor using [3H]spiperone expressed in CHO cells

D(4) dopamine receptor = molecular target: T2, D(4) dopamine receptor (Homo sapiens, UniProt P21917); assay: biochemical
T2 sequence (P21917 whole entry): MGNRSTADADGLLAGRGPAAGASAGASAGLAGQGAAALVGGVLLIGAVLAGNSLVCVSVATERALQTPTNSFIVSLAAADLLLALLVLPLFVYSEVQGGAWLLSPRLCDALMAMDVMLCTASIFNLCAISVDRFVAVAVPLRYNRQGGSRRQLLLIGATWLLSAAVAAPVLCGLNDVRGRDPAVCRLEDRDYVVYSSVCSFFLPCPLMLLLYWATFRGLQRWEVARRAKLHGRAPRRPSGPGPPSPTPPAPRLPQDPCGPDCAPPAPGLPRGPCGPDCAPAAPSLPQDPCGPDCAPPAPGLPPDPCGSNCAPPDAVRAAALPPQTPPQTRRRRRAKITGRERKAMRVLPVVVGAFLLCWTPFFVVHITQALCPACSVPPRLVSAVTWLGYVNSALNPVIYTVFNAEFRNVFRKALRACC
Description: Binding affinity towards human D4.4 receptor using [3H]spiperone expressed in CHO cells

D(2) dopamine receptor [3] = molecular target: T1, D(2) dopamine receptor; assay: biochemical; remark: listed apart in the source
Description: Binding affinity towards human D2 long receptor using [3H]spiperone expressed in CHO cells

Chain of D(1A) dopamine receptor (P50130 whole entry): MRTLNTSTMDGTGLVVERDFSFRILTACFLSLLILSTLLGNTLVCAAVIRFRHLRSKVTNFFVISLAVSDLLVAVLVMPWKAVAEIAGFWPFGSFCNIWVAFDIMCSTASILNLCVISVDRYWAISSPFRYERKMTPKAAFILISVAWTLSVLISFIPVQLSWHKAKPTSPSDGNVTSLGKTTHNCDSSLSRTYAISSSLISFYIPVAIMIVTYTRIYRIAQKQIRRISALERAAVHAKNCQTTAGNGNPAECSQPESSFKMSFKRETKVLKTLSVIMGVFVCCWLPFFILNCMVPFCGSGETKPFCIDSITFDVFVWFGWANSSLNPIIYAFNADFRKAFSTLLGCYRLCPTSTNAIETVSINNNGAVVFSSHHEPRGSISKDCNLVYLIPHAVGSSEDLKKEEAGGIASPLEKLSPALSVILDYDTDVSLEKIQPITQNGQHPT
Chain of D(3) dopamine receptor (P35462 whole entry): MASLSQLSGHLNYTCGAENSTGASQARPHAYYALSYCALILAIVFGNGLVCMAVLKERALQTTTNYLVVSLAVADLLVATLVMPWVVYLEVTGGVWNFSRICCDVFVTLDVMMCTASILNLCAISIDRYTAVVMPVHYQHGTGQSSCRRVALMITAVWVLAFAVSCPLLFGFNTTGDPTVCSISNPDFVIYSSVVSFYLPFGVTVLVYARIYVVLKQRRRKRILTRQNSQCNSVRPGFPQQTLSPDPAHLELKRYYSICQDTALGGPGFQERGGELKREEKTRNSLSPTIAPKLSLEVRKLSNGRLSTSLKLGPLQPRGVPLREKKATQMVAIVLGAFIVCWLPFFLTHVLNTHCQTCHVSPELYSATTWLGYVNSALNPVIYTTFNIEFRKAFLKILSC

SMILES | Ki [1] [nM] | Ki (D(1A) dopamine receptor) [nM] | Ki (D(3) dopamine receptor) [nM] | Ki (D(2) dopamine receptor [2]) [nM] | Ki (D(4) dopamine receptor) [nM] | Ki (D(2) dopamine receptor [3]) [nM]
COc1ccccc1N1CCN(CCCCNC(=O)c2cc3cc(I)ccc3o2)CC1 | 230 | 420 | 1.4 | 27 | 46 | –
COc1ccccc1N1CCN(CCCCNC(=O)c2ccc(I)s2)CC1 | 690 | 600 | 2.4 | 35 | 31 | 75
O=C(NCCCCN1CCN(c2cccc(Cl)c2Cl)CC1)c1cc2cc(I)ccc2s1 | 290 | 1400 | 4.5 | 140 | 550 | 450
O=C(NCCCCN1CCN(c2cccc(Cl)c2Cl)CC1)c1cc2cc(I)ccc2o1 | 790 | 3300 | – | 430 | 2200 | 3200
COc1ccccc1N1CCN(CCCCNC(=O)c2cc3cc(I)ccc3s2)CC1 | 250 | 520 | 0.86 | 1 | 42 | 48
O=C(NCCCCN1CCN(c2cccc(Cl)c2Cl)CC1)c1ccc(I)s1 | 210 | 820 | 1.4 | 32 | 130 | 89
O=C(NCCCCN1CCN(c2cccc(Cl)c2Cl)CC1)c1cc2ccccc2s1 | 3000 | – | – | – | – | –
